Patent publication US10828300B2, “Substituted 2,4-diaminopyrimidines as kinase inhibitors” (Celgene CAR LLC, priority 2008, dated 2020)
Entries after “also recorded” stand apart in the source; their conditions may differ.

Tests used:
[1] = target: T1, BTK (Homo sapiens (Human), UniProt Q06187); test: Washout experiment with Ramos cells (PLCγ2 phosphorylation); assay type: cell-based; conditions: Ramos washout assay, 100 nM compound for 1 hour
Procedure: Washout Experiment with Ramos Cells
Ramos cells were serum starved for one hour in RPMI media +1% glutamine at 37° C. After starvation, Ramos cells were treated with 100 nM compound diluted in serum free RPMI media for 1 hour. After compound treatment, the media was removed and cells were washed with compound-free media. Subsequently, Ramos cells were washed every 2 hours and resuspended in fresh compound-free media. Cells were collected at specified timepoints, treated with 1 ug anti-human IgM (Southern Biotech cat #2022-01) for 10 minutes on ice to induce BCR signaling and then washed in PBS. Ramos cells were then lysed in Cell Extraction Buffer (Invitrogen FNN0011) supplemented with Roche complete protease inhibitor tablets (Roche 11697498001) and phosphatase inhibitors (Roche 04 906 837 001) and 18 ug total protein lysate was loaded in each lane. Inhibition of BTK kinase activity was assayed by measuring its substrate (PLCγ2) phosphorylation by western blot with phospho-specific antibodies from Cell Signaling Technologies cat#3871. The results of this experiment with compounds I-2, I-4 and I-7 are depicted in FIGS. 1, 2 and 3.

[2] = target: TEC kinase (Homo sapiens (Human), UniProt P42680); test: Mass spectrometry for TEC kinase (tryptic digest); assay type: binding, Homo sapien; conditions: 3 hrs at 10× excess, peptide GCLLNFLR
Procedure: Mass Spectrometry for TEC Kinase (Compound I-2)
(§1) TEC kinase (45 pmols; Invitrogen) was incubated with (I-2) (450 pmols) for 3 hrs at 10× excess prior to tryptic digestion. Iodoacetamide was used as the alkylating agent after compound incubation. […] For tryptic digests a 5 ul aliquot (7.5 pmols) was diluted with 15 ul of 0.1% TFA prior to micro C18 Zip Tipping directly onto the MALDI target using alpha cyano-4-hydroxy cinnamic acid as the matrix (5 mg/ml in 0.1% TFA:Acetonitrile 50:50).
(§2) For tryptic digests the instrument was set in Reflectron mode with a pulsed extraction setting of 2200. Calibration was done using the Laser Biolabs Pep Mix standard ([…], 1296.69, 1672.92, 2093.09, 2465.20). For CID/PSD analysis the peptide was selected using cursors to set ion gate timing and fragmentation occurred at a laser power about 20% higher and He was used as the collision gas for CID. Calibration for fragments was done using the P14R fragmentation calibration for the Curved field Reflectron.
Mass Spectrometry for TEC Kinase (Compound I-4)
as §1, with “(I-4)” for “(I-2)”
as §2, with “1800.” for “2200.”
Mass Spectrometry for TEC Kinase (Compound I-7) […]

[3] = target: Erbb4 kinase domain (Homo sapiens (Human), UniProt Q15303); test: Mass spectrometry for ERBB4 (intact protein); assay type: binding; conditions: 60 minutes at 10-fold excess of compound
Procedure: Mass Spectrometry for ERBB4
Erbb4 kinase domain (Upstate) was incubated with compound for 60 minutes at 10-fold excess of compound I-4 and I-11 to protein. 1 μl aliquots of the samples (total volume of 4.24 ul) were diluted with 10 μl of 0.1% TFA prior to micro C4 ZipTipping directly onto the MALDI target using Sinapinic acid as the desorption matrix (10 mg/ml in 0.1% TFA:Acetonitrile 50:50). For intact protein mass measurement the instrument was set in Linear mode using a pulsed extraction setting of 16,952 for the myoglobin standard used to calibrate the instrument (Shimadzu Axima TOF^2).
Intact ErbB4 protein occurs at MH+ of 35850 with corresponding sinapinic (matrix) adducts occurring about 200 Da higher. A stochiometric incorporation of the test compound (I-4 and I-11) (Mw of 410 Da) produced a new mass peak which is approximately 410 Da higher (MH+ of 36260).

[4] = target: T1, BTK; test: Mass spectrometry for BTK (intact protein, covalent modification); assay type: binding
Procedure: Mass Spectrometry for BTK
Intact BTK was incubated for 1 hr at a 10× fold excess of I-7 to protein. Aliquots (2 μl) of the samples were diluted with 10 μl of 0.1% TFA prior to micro C4 ZipTipping directly onto the MALDI target using Sinapinic acid as the desorption matrix (10 mg/ml in 0.1% TFA:Acetonitrile 20:80).

[5] = target: JAK3 kinase (Homo sapiens (Human), UniProt P52333); test: Mass spectrometry for Janus-3 kinase (JAK3), tryptic digest; assay type: binding, homosapien; conditions: 3 hrs at 10× excess, peptide LVMEYLPSGCLR
Procedure: Mass Spectrometry for Janus-3 Kinase (JAK3)
JAK3 kinase (33 pmols; Invitrogen) was incubated with (I-7) (327 pmols) for 3 hrs at 10× excess prior to tryptic digestion. Iodoacetamide was used as the alkylating agent after compound incubation. For tryptic digests a 5 ul aliquot (5.5 pmols) was diluted with 15 ul of 0.1% TFA prior to micro C18 Zip Tipping directly onto the MALDI target using alpha cyano-4-hydroxy cinnamic acid as the matrix (5 mg/ml in 0.1% TFA:Acetonitrile 50:50).
as §2

[6] = target: T1, BTK; test: Washout experiment with I-7 and probe compound I-215 in Ramos cells; assay type: cell-based; conditions: 0.1 μM for 1 hour, then washout, probe I-215
Procedure: Washout Experiment with I-7 and Probe Compound I-215
Ramos cells were incubated with 0.1 μM I-7 or a reversible BTK inhibitor control compound in serum free media for 1 hour at 37° C. The cells were then washed in compound-free media and lysed 0, 4, 6, or 8 hours after compound removal. Cell lysates were incubated with 1 μM I-215 for 1 hour at room temperature, then overnight at 4° C. with streptavidin-coupled agarose beads. Protein was boiled off the beads and BTK association was assessed by western blot. […] In contrast, with the reversible inhibitor control, 45% of BTK protein is unbound and available to the probe at 0 hours and by 4 hours 100% of BTK protein is unbound and available to bind the probe. All samples were normalized to the DMSO-treated cells harvested at 0 hours.

[7] = target: T1, BTK; test: BTK occupancy from in vitro samples by ELISA (Ramos cells, probe I-215); assay type: cell-based; conditions: probe I-215 ELISA
Description: Measuring BTK occupancy from in vitro samples by ELISA
In order to determine the amount of free BTK in cell or tissue lysates, an ELISA protocol was employed that utilizes a biotinylated probe compound that binds only to free, unoccupied BTK. The conjugated biotin is captured on a streptavidin-coated ELISA plate and detected with a mouse anti-BTK antibody (Becton Dickinson, Franklin Lakes, N.J., USA) and a secondary goat anti-mouse HRP antibody (Zymed, South San Francisco, Calif., USA).
All samples were prepared with equal concentrations of Biorad lysis buffer (Hercules, Calif., USA), 0.5% bovine serum albumin in PBS with 0.05% Tween-20 to give a final concentration of 1 μM I-215. Samples were incubated in a mixing plate for 1 hr at room temperature while shaking to allow probe compound I-215 to bind to free BTK. After incubation with I-215, samples were added to a washed, streptavidin-coated ELISA plate (Pierce, Rockford, Ill., USA) and incubated for 1 hr at room temperature while shaking. The plate was then washed with PBS containing 0.05% Tween-20 using an automatic plate washer. Anti-BTK antibody was prepared at 1:1000 dilution in 0.5% BSA in PBS (0.05% Tween-20) and added to the ELISA plate. The plate was incubated for 1 hr at room temperature while shaking. The plate was washed as described above and the secondary HRP antibody was prepared at 1:5000 dilution in 0.5% BSA in PBS (0.05% Tween-20). The plate was incubated and washed as described above. TMB was added to the plate, and OD650 was monitored until reaching 1 OD unit. The reaction was then stopped with addition of H2SO4. The plate was analyzed using Gen 5 software, and a 4 Parameter Logistic curve was employed to quantitate samples. Recombinant BTK (Invitrogen, Carlsbad, Calif., USA) was used for the standard curve.
A concentration designated as “A” is greater than 1 nM; a concentration designated as “B” is greater than 10 nM; and a concentration designated as “C” is greater than 50 nM.

[8] = target: T1, BTK; test: Omnia assay protocol for potency assessment against BTK; assay type: biochemical
Description: Omnia Assay Protocol for Potency Assessment Against BTK

[9] = target: T1, BTK; test: BTK Ramos cellular assay (phosphorylation of BTK substrate PLCγ2); assay type: cell-based; conditions: Ramos cells, anti-IgM stimulated, read-out: BTK Inhibition (BTK Ramos Cellular Inhibition Data)
Procedure: Ramos cells were grown in suspension in T225 flasks, spun down, resuspended in 50 ml serum-free media and incubated for 1 hour. […] Ramos cells were incubated with compound for 1 hour, washed again and resuspended in 100 ul serum-free media. Cells were then stimulated with 1 μg of goat F(ab′)2 Anti-Human IgM and incubated on ice for 10 minutes to activate B cell receptor signaling pathways. After 10 minutes, the cells were washed once with PBS and then lysed on ice with Invitrogen Cell Extraction buffer. 16 μg total protein from lysates were loaded on gel and blots were probed for phosphorylation of the BTK substrate PLCγ2.

[10] = target: ITK (Homo sapiens (Human), UniProt Q08881); test: Omnia assay for potency assessment against active forms of ITK kinase; assay type: biochemical; conditions: [ITK]=10 nM, [ATP]=25 μM, [Y6-Sox]=10 μM; read-out: ITK Inhibition
[11] = target: EGFR-WT (Homo sapiens (Human), UniProt P00533); test: Omnia assay for potency assessment against EGFR (WT); assay type: biochemical; conditions: read-out: EGFR Wild Type Inhibition
Sequence of EGFR-WT (P00533 25-1210): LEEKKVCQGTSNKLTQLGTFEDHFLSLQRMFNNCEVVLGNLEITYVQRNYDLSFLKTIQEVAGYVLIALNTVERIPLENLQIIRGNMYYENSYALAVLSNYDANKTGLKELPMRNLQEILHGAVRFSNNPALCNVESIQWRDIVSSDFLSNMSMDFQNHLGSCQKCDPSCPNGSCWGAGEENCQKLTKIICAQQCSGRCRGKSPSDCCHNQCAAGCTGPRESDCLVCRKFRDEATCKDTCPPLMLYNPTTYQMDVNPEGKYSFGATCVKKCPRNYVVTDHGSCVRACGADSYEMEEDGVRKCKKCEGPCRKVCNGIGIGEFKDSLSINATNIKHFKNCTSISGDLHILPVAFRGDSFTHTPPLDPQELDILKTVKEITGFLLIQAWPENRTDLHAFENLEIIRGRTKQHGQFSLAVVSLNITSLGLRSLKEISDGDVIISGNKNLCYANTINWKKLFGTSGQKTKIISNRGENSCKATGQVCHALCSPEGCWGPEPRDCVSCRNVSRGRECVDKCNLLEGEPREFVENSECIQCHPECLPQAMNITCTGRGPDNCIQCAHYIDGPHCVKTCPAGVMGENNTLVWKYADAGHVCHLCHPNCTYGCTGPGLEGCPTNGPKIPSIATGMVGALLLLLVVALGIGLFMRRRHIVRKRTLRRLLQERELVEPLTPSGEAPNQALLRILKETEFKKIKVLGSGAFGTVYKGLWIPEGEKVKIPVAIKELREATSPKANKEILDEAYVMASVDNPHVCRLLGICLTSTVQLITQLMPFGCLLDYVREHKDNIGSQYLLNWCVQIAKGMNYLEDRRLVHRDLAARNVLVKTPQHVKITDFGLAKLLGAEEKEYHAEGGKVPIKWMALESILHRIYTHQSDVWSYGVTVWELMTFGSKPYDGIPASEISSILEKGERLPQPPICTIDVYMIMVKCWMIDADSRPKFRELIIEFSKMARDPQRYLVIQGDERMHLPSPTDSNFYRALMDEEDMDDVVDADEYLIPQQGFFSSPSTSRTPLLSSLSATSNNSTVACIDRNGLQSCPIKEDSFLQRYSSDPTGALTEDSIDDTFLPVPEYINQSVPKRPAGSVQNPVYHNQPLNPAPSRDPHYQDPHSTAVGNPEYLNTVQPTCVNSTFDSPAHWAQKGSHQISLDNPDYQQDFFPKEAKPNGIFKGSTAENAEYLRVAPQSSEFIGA

Sequence of JAK3 kinase (P52333 whole entry): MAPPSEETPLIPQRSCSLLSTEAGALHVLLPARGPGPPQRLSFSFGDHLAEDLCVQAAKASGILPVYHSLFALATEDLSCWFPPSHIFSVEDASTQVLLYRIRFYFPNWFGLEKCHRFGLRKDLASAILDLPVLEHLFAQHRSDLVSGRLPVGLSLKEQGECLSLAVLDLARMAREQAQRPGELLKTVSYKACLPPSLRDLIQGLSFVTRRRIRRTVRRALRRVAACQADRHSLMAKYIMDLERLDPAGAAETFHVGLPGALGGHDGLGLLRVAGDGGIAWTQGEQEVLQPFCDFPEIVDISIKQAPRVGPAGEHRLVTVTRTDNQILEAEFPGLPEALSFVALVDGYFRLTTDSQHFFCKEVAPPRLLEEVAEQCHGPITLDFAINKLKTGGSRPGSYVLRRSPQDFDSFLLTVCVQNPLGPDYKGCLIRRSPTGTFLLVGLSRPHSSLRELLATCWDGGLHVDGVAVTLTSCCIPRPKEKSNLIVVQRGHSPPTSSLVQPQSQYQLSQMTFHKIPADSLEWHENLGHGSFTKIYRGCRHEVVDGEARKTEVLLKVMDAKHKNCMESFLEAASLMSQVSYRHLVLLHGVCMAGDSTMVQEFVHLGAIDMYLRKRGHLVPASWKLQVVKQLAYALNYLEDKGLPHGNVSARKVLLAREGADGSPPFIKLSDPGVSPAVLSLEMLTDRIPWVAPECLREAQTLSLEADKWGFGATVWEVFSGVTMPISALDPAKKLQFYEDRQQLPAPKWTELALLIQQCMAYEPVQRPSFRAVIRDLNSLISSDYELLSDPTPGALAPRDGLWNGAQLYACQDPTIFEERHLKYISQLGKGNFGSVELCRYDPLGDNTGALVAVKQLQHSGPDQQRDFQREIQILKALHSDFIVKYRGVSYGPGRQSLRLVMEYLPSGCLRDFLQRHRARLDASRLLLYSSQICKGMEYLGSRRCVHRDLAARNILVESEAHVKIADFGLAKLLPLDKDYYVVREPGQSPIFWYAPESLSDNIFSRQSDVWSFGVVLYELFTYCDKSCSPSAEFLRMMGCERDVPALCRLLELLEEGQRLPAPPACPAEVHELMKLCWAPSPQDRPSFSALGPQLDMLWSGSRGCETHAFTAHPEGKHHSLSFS
T1 sequence (Q06187 whole entry): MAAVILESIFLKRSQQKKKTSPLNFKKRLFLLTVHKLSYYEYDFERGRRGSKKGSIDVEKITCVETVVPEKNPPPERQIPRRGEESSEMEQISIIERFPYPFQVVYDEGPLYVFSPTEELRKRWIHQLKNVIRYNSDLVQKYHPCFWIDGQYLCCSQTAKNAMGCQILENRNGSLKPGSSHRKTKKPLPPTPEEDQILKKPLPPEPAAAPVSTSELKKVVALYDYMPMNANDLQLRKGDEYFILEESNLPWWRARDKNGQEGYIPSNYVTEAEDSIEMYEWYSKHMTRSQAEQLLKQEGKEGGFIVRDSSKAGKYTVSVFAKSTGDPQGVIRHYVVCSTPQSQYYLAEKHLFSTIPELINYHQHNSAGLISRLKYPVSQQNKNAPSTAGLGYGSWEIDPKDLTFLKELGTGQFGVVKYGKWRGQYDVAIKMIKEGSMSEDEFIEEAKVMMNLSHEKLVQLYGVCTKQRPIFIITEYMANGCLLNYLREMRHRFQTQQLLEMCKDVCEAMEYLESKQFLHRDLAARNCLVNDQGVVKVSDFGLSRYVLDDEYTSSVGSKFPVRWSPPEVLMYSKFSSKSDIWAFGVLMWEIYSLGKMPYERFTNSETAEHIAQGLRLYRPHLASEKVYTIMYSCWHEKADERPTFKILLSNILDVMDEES
Sequence of TEC kinase (P42680 whole entry): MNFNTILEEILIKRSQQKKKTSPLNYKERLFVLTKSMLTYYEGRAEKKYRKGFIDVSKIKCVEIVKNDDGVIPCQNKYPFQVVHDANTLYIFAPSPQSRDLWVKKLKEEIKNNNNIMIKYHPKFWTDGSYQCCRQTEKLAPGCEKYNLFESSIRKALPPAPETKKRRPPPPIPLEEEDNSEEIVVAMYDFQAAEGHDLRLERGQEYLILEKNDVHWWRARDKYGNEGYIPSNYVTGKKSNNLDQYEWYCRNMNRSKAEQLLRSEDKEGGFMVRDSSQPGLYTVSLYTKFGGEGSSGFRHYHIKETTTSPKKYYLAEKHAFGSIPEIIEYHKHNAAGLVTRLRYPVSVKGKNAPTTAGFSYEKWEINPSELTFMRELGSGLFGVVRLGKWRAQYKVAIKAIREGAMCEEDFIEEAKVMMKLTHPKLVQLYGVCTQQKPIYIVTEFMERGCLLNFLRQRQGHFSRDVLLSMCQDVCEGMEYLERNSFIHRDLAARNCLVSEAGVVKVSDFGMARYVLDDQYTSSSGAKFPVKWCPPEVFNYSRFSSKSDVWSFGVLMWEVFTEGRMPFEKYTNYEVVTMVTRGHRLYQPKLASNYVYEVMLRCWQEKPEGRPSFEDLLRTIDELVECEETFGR
Sequence of Erbb4 kinase domain (Q15303 718-985): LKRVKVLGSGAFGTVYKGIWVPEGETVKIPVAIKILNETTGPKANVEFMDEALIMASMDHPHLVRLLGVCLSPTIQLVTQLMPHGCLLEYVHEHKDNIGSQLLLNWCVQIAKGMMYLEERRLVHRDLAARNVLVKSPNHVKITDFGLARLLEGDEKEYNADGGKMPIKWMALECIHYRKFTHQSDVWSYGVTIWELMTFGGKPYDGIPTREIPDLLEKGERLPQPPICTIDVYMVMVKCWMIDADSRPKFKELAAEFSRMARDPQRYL
Sequence of ITK (Q08881 whole entry): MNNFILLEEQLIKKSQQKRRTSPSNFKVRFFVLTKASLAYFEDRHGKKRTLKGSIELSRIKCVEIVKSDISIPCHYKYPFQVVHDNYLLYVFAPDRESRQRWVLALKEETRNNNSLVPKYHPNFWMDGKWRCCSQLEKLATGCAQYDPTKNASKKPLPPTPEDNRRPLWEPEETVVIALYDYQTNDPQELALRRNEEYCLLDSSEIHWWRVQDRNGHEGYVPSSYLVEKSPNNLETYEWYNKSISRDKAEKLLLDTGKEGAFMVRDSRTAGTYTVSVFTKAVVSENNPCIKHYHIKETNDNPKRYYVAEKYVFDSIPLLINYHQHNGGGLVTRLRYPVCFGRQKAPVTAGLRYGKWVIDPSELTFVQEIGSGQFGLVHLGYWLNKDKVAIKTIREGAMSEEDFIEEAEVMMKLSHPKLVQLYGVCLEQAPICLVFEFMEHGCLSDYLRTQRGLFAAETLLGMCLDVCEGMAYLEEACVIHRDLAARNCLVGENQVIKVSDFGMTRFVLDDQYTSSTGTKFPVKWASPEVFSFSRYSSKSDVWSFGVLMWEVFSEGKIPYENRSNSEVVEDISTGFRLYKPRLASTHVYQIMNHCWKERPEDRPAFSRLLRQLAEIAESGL

Structure (SMILES): Cc1cccc(Nc2nc(Nc3cccc(NC(=O)/C=C/CN(C)C)c3)ncc2F)c1 [Compound I-4, (E)-4-(dimethylamino)-N-(3-(5-fluoro-4-(m-tolylamino)pyrimidin-2-ylamino)phenyl)but-2-enamide]
- BTK Inhibition Type [1]: irreversible
- covalent modification of TEC kinase by mass spectrometry [2]: reaction was complete; also recorded: covalent modification of TEC kinase at Cys449
- covalent modification of ErbB4 by mass spectrometry [3]: covalent modification of ErbB4

Structure (SMILES): C=CC(=O)Nc1cccc(Nc2nc(Nc3ccccc3)ncc2C)c1 [Compound I-7, N-(3-(5-methyl-2-(phenylamino)pyrimidin-4-ylamino)phenyl) acrylamide]
- BTK Inhibition Type [1]: irreversible
- positive shift of centroid mass of BTK ([4]; intact BTK incubated 1 hr with 10× fold excess of compound): about 371.1 Da
- covalent modification of BTK by mass spectrometry ([4]; intact BTK, 1 hr, 10× fold excess of compound): complete modification; also recorded: covalent modification of BTK
- covalent modification of TEC kinase by mass spectrometry [2]: reaction was complete; also recorded: covalent modification of TEC kinase at Cys449
- covalent modification of JAK3 by mass spectrometry [5]: reaction was not entirely complete; also recorded: covalent modification of JAK-3 kinase at Cys909
- time BTK protein remains occupied after compound removal [6]: over 8 hours
- concentration at which >50% of BTK is occupied [7]: A (greater than 1 nM)
- concentration at which >90% of BTK is occupied [7]: B (greater than 10 nM)

Structure (SMILES): Cc1cnc(Nc2cccc(S(N)(=O)=O)c2)nc1Nc1ccc2c(c1)CCN(C(=O)CCl)C2 [Compound I-11, 3-(4-(2-(2-chloroacetyl)-1,2,3,4-tetrahydroisoquinolin-6-ylamino)-5-methylpyrimidin-2-ylamino)benzenesulfonamide]
- covalent modification of ErbB4 by mass spectrometry [3]: covalent modification of ErbB4
- covalent modification of JAK3 by mass spectrometry [5]: measurable modification

Structure (SMILES): C=CC(=O)Nc1cccc(Oc2nc(Nc3ccc(OC)nc3)ncc2C(=O)NC2CC2)c1 [Compound I-176, 4-(3-acrylamidophenoxy)-2-(6-methoxypyridin-3-ylamino)-pyrimidine-5-carboxylic acid cyclopropylamide]
- IC50 ([8]; Omnia assay, [BTK]=5 nM, read-out: BTK Inhibition): < 10 nM
- IC50 [9]: 100 to 1000 nM
- IC50 [10]: 10 to 100 nM
- IC50 [11]: < 10 nM

Structure (SMILES): CCC(=O)Nc1cccc(Nc2nc(Nc3ccccc3)ncc2C)c1 [I^R-7, N-(3-(5-methyl-2-(phenylamino)pyrimidin-4-ylamino)phenyl) propionamide]
- biochemical activity against BTK [8]: biochemically inactive against BTK
